Patent publication EP1397353B1, “2-(2,6-DISUBSTITUTED PHENYL)-4-ARYL-5-ALKYL-1,3-OXAZOLINE COMPOUNDS USEFUL AS INSECTICIDES AND ACARICIDES” (Dow AgroSciences LLC, priority 2001, dated 2003)

Columns and labels:
Assay type in all cases: in vivo
[1] = system: tobacco budworm (Heliothis virescens); experiment: Insecticidal test for tobacco budworm (leaf-dip, cotton cotyledon discs); details: dipped cotton cotyledon discs, 2nd instar larvae, 5 days, rating of % Control; for pest or weed control at 400 ppm: Heliothis virescens, 120 h, read-out: TBW, activity at 400 ppm against tobacco budworm
Protocol: (§1) Insecticidal test for tobacco budworm (Heliothis virescens), beet armyworm (Spodoptera exigua), and cabbage looper (Trichoplusia ni).
(§2) To prepare test solution, the test compound was formulated at 400 ppm in 7.5 mL of 2 acetone: 1 tap water. 250 µL of the test solution was pipetted upon the surface of 8 mL of lepidopteran diet (modified Shorey) contained in each of five one-ounce plastic cups (one cup = 1 replication). […] After airdrying, the treated leaf discs were placed individually into one-ounce plastic cups. Each dried, treated cotton cotyledon disc was infested with a 2nd instar tobacco budworm larva, and each cabbage leaf disc was infested with a 2nd instar cabbage looper larva. Cups containing the treated substrates and larvae were capped and then held in a growth chamber at 25 °C, 50-55% RH, and 14 hr light: 10 hr dark for 5 days.

[2] = system: two-spotted spider mite (Tetranychus urticae); experiment: Insecticidal test for two-spotted spider mite, ovicide method; details: for pest or weed control: Tetranychus urticae, read-out: SM, activity against two-spotted spider mite
Protocol: Insecticidal test for two-spotted spider mite (Tetranychus urticae)
Ten adult female two-spotted spider mites were placed on eight 2.2 cm leaf discs of cotton leaf, allowed to oviposit over 24 hours, and thereafter removed. […] Discs were placed on an agar substrate and held at 24 °C and 90% RH for 6 days.

[3] = system: cotton aphid (Aphis gossypii); experiment: Insecticidal test for cotton aphid (spray on infested squash cotyledons); details: 50 ppm spray, all life stages, 3 days, rating of % Control
Protocol: Insecticidal test for cotton aphid (Aphis gossypii)
To prepare spray solutions, 1 mg of each test compound was dissolved into 1 mL of a 90:10 acetone:ethanol solvent. This 1 mL of chemical solution was added to 19 mL of water containing 0.05% Tween 20 surfactant to produce a 50 ppm spray solution.
Squash cotyledons were infested with cotton aphid (all life stages)16-20 hours prior to application of spray solution. The solution was sprayed on both sides of each infested squash cotyledon (0.5 mL x 2 each side) with a sweeping action until runoff. The plants were allowed to air dry and held for 3 days in a controlled room at 26 °C and 40% RH after which time the test was graded. Grading was by actual count using a dissecting microscope and comparison of test counts to the untreated check.

[4] = system: cabbage looper (Trichoplusia ni); experiment: Insecticidal test for cabbage looper (leaf-dip, cabbage leaf discs); details: dipped cabbage leaf discs, 2nd instar larvae, 5 days, rating of % Control; for pest or weed control at 400 ppm: Trichoplusia ni, foliar, 120 h, read-out: CL, activity at 400 ppm against cabbage looper
Protocol: as §1, §2

[5] = system: beet armyworm (Spodoptera exigua); experiment: Insecticidal test for beet armyworm (treated lepidopteran diet); details: 2nd instar larvae, 5 days, rating of % Control; for pest or weed control at 400 ppm: Spodoptera exigua, 120 h, read-out: BAW, activity at 400 ppm against beet armyworm
Protocol: as §1, §2

[6] = system: Sweetpotato Whitefly (Bemisia tabacia); experiment: Insecticidal test for sweetpotato whitefly (spray on cotton plants); details: 200 ppm spray, large nymphs counted after 13 days, rating of % Control; for pest or weed control at 200 ppm: Bemisia, 312 h, read-out: WF, activity at 200 ppm against whitefly
Protocol: Insecticidal test for Sweetpotato Whitefly (Bemisia tabacia)
Four mg of each test compound were dissolved by adding 4 mL of a 90:10 acetone:ethanol solvent mixture to the vial containing the sample compound. This solution was added to 16 mL of water containing 0.05% Tween 20 surfactant to produce 20 mL of a 200 ppm spray solution.
Five-week-old cotton plants reared in a greenhouse were stripped of all foliage except for the two uppermost true leaves that were greater than 5 cm in diameter. These plants were then placed into a laboratory colony of whiteflies for two days for oviposition by the colony females. All whiteflies were then removed from the test plants with pressurized air. The spray solution was then applied to the test plants with a hand-held syringe fitted with hollow cone nozzle. One mL spray solution was applied to each leaf top and bottom for a total of 4 mL per plant. Four replications of each test compound utilized a total of 16 mL spray solution. Plants were air dried and then placed in a holding chamber (28 °C and 60% RH) for 13 days. Compound efficacy was evaluated by counting, under an illuminated magnifying glass, the number of large nymphs (3rd-4th instar) per leaf
Percent control based on reduction of large nymphs of a test compound compared to solution-only (no test compound) sprayed plants is reported in Table 1-8.

[7] = foliar, 144 h, ovicide method, cotton leaf discs, 6 days, rating of % Control
[8] = ovicide method, cotton leaf discs, 6 days, rating of % Control

Row | SMILES | pest or weed control at 400 ppm [1] [%] | pest or weed control [2, 7] [%] | CA, activity at 50 ppm against cotton aphid [3] | pest or weed control at 400 ppm [4] [%] | pest or weed control at 400 ppm [5] [%] | other results
1 | C[C@@H]1OC(c2c(F)cccc2Cl)=N[C@@H]1c1ccc(-c2ccc(C(F)(F)F)cc2)cc1 (mixture of isomers) [Compound 4, (4R,5S)- and (4S,5R)-2-(2-chloro-6-fluorophenyl)-5-methyl-4-[4'-(trifluoromethyl)-1,1'-biphenyl-4-yl]-4,5-dihydro-1,3-oxazole] | 90 to 100 | 90 to 100 | A (90-100) | 90 to 100 | 90 to 100 | –
2 | CC(C)c1ccc(-c2ccc([C@@H]3N=C(c4c(F)cccc4F)O[C@@H]3C)cc2)cc1 (mixture of isomers) [Compound 7, (4S,5R)- and (4R,5S)-2-(2,6-difluorophenyl)-4-(4'-isopropyl-1,1'-biphenyl-4-yl)-5-methyl-4,5-dihydro-1,3-oxazole] | 90 to 100 | 60 to 69 | – | 90 to 100 | 90 to 100 | pest or weed control at 200 ppm [6]: 90 to 100%
3 | C[C@H]1OC(c2c(F)cccc2F)=N[C@@H]1c1ccc(I)cc1 (mixture of isomers) [Compound 22, (4R, 5R)- and (4S,5S)-4-(4-iodophenyl)-2-(2,6-difluorophenyl)-5-methyl-4,5-dihydro-1,3-oxazole] | – | 90 to 100 | A (90-100) | < 50 | 90 to 100 | –
4 | C[C@H]1OC(c2c(F)cccc2F)=N[C@@H]1c1ccc(Br)cc1 (mixture of isomers) [Compound 24, (4R,5R)- and (4S,5S)-4-(4-bromophenyl)-2-(2,6-difluorophenyl)-5-methyl-4,5-dihydro-1,3-oxazole] | < 50 | 90 to 100 | A (90-100) | < 50 | – | –
5 | C[C@H]1OC(c2c(F)cccc2F)=N[C@@H]1c1ccc(-c2ccc(OC(F)(F)F)cc2)cc1 (mixture of isomers) [Compound 27, (4R,5R)- and (4S,5S)-2-(2,6-difluorophenyl)-4-(4'-trifluoromethoxy-1,1'-biphenyl-4-yl)-5-methyl-4,5-dihydro-1,3-oxazole] | 80 to 89 | 90 to 100 | E (50-59) | 90 to 100 | 90 to 100 | –
6 | C[C@@H]1OC(c2c(F)cccc2F)=N[C@H]1c1ccc(-c2ccc(C(F)(F)F)cc2F)cc1 (mixture of isomers) [Compound 32, (4S,5S)- and (4R,5R)-2-(2,6-difluorophenyl)-4-[2'-fluoro-4'-(trifluoromethyl)-1,1'-biphenyl-4-yl]-5-methyl-4,5-dihydro-1,3-oxazole] | 90 to 100 | 70 to 79 | – | 90 to 100 | 90 to 100 | pest or weed control at 200 ppm [6]: < 50%
7 | Cc1cc(Br)ccc1[C@H]1N=C(c2c(F)cccc2F)O[C@H]1C (mixture of isomers) [Compound 38, (4R,5S)- and (4S,5R)-4-(4-bromo-2-methylphenyl)-2-(2,6-difluorophenyl)-5-methyl-4,5-dihydro-1,3-oxazole] | – | 60 to 69 | – | – | – | pest or weed control at 200 ppm [6]: < 50%
8 | CCOc1ccc(-c2ccc([C@H]3N=C(c4c(F)cccc4F)O[C@H]3C)c(C)c2)cc1 (mixture of isomers) [Compound 41, (4R,5S)- and (4S,5R)-2-(2,6-difluorophenyl)-4-(4'-ethoxy-3-methyl-1,1'-biphenyl-4-yl)-5-methyl-4,5-dihydro-1,3-oxazole] | 90 to 100 | 60 to 69 | – | 90 to 100 | 90 to 100 | –
9 | Cc1cc(-c2ccc(C(F)(F)F)cc2)ccc1[C@@H]1N=C(c2c(F)cccc2F)O[C@H]1C (mixture of isomers) [Compound 43, (4S,5S) - and (4R,5R)-2-(2,6-difluorophenyl)-5-methyl-4-[3-methyl-4'-(trifluoromethyl)-1,1'-biphenyl-4-yl]-4,5-dihydro-1,3-oxazole] | 90 to 100 | – | – | 90 to 100 | 90 to 100 | pest or weed control at 200 ppm [6]: < 50%
10 | CCOc1ccc(-c2ccc([C@@H]3N=C(c4c(F)cccc4F)O[C@H]3C)c(C)c2)cc1 (mixture of isomers) [Compound 45, (4S,5S)- and (4R,5R)-2-(2,6-difluorophenyl)-4-(4'-ethoxy-3-methyl-1,1'-biphenyl-4-yl)-5-methyl-4,5-dihydro-1,3-oxazole] | 90 to 100 | < 50 | – | 90 to 100 | 90 to 100 | –
11 | C[C@@H]1OC(c2c(F)cccc2F)=N[C@@H]1c1ccc(I)cc1 (racemic) [Compound 1, (4R,5S)- and (4S,5R)-4-(4-iodorphenyl)-2-(2,6-difluorophenyl)-5-methyl-4,5-dihydro-1,3-oxazole] | – | – | A (90-100) | – | – | SM, activity at 2.5 ppm against two-spotted spider mite ([2]; foliar, 144 h): A (90-100)
12 | C[C@H]1OC(c2c(F)cccc2F)=N[C@H]1c1ccc(-c2ccc(OC(F)(F)F)cc2)cc1 (stereo in doubt) [Compound 49, (4S,5R)-2-(2,6-difluorophenyl)-5-methyl-4-[4'-(trifluoromethoxy)-1,1'-biphenyl-4-yl]-4,5-dihydro-1,3-oxazole] | – | – | – | – | – | SM, activity at 2.5 ppm against two-spotted spider mite [2, 8]: A (90-100); WF, activity at 200 ppm against whitefly [6]: B (80-89); CL, activity at 400 ppm against cabbage looper [4]: A (90-100); BAW, activity at 400 ppm against beet armyworm [5]: A (90-100)
13 | C[C@@H]1OC(c2c(F)cccc2F)=N[C@@H]1c1ccc(-c2ccc(OC(F)(F)F)cc2)cc1 (stereo in doubt) [Compound 51, (4R,5S)-2-(2,6-difluorophenyl)-5-methyl-4-[4'-(trifluoromethoxy)-1,1'-biphenyl-4-yl]-4,5-dihydro-1,3-oxazole] | 80 to 89 | 90 to 100 | F (less than 50) | 90 to 100 | 90 to 100 | –
14 | C[C@@H]1OC(c2c(F)cccc2F)=N[C@H]1c1ccc(Br)cc1 [Compound 46, (4S,5S)-4-(4-bromophenyl)-2-(2,6-difluorophenyl)-5-methyl-4,5 dihydro-1,3-oxazole] | – | 90 to 100 | A (90-100) | – | – | –
15 | C[C@H]1OC(c2c(F)cccc2F)=N[C@@H]1c1ccc(-c2ccc(OC(F)(F)F)cc2)cc1 [Compound 53, (4R,5R)-2-(2,6-difluorophenyl)-5-methyl-4-[4'-(trifluoromethoxy)-1,1'-biphenyl-4-yl]-4,5-dihydro-1,3-oxazole] | – | – | F (less than 50) | – | – | TBW, activity at 400 ppm against tobacco budworm [1]: B (80-89); SM, activity at 2.5 ppm against two-spotted spider mite [2, 8]: A (90-100); CL, activity at 400 ppm against cabbage looper [4]: A (90-100); BAW, activity at 400 ppm against beet armyworm [5]: A (90-100)
